Assay results taken from patent publication US20240269139A1, “COMPOUNDS FOR TARGETED PROTEIN DEGRADATION OF KINASES” (DANA-FARBER CANCER INSTITUTE, INC., priority 2020, published 2024).

Legend:
[1] = target: T1, CRBN-degrader-kinase ternary complexes (Homo sapiens, UniProt Q96SW2); test: FLAG-CRBN affinity purification TMT LC-MS3 (AP-MS) of degrader-mediated ternary complexes; type: cell-based, H. sapiens; settings: for enriched proteins in the CRBN AP-MS: relative to SB1-G-187 and WH-10417-099
T1 construct: host or cells: HEK293T
Text: An important aspect of protein degraders is the multifaceted nature of the molecule that enables heightened target selectivity due to differences in complementarity of target-ligase interactions, which is not a consideration when assessing selectivity of inhibitors for target engagement (Famaby el al., Nat Chem Biol 15:672-680 (2019)). For compound-induced degradation to be successful, productive ternary complex formation (ligase-degrader-POI) is necessary for proximity-mediated ubiquitin transfer onto the POI. […] Cellular affinity purification was performed, followed by mass spectrometry (AP-MS) of FLAG-tagged CRBN transiently overexpressed in HEK293T cells. FLAG-CRBN expressing cells were co-treated with proteosome inhibitor and 1 μM of each degrader for 5 h, and the degree of kinase target enrichment was compared to kinase degradation hits in matched global proteomics analysis experiments (FIG. 3A, FIG. 3C). The proteins identified as complexed with CRBN were enriched for kinases as well as their known binding partners such as Cyclin B (CDK1) and RASSF1 (STK4), consistent with the binding profiles of the assayed degraders. All kinases identified by AP-MS except CSNK1A1 were also detected in the HEK293T whole proteome degrader profiling experiment, allowing us to interrogate trends across 52 unique kinases (FIG. 4A; FIG. 11B). Limitations of this experiment include the potential loss of transient or weakly bound complexes in the enrichment and subsequent wash steps, the inherent noise associated with AP-MS relative to global proteomics analysis (Dunham et al., Proteomics 12:1576-1590 (2012): Yugandhar et al., Comput Struct Biotechnol J 17:805-811 (2019)) and the short time point of the experiment, which precludes detection of degradation events with slow kinetics. Therefore, the relationship between the formation of abundant, stable ternary complexes and rapid degradation was assessed.
HEK293T cells were seeded into 15 cm plates and cells were transiently transfected with 8 μg of pNTM-FLAG-CRBN construct using lipofectamine 2000. […] Cells were harvested with non-enzymatic CellStripper™ Dissociation reagent (Corning®), followed by three washes with cold PBS and snap freezing. Cell lysis was performed by the addition of IP lysis buffer (50 mM Tris. pH 7.5, 0.5% NP-40, 1 mM EDTA, 10% glycerol and 200 mM NaCl) containing protease inhibitor cocktail (cOmplete™) and relevant co-treatment (above), followed by end-over-end rotation at 4° C. for 3 hours. Lysate was clarified by centrifugation and salt concentration diluted to 100 mM NaCl with the addition of 0 mM NaCl lysis buffer (containing protease inhibitors and 1 μM of relevant compounds to retain temary complexes throughout binding). Lysate was added to 20 μL of pre-washed anti-FLAG M2 magnetic bead slurry (MilliporeSigma) and incubated with end-over-end rotation at 4° C. overnight. Beads were washed six times with 100 mM NaCl lysis buffer containing 1 μM of relevant degraders to retain ternary complexes throughout wash steps.
Proteins were eluted in a two-step elution with the addition of 0.1 M Glycine hydrochloride (MilliporeSigma) and elution buffered to pH 8.5 using 200 mM Tris buffer, pH 8.5. […] Protein pellets were resuspended in 50 μL of EPPs pH 8 and first digested with 2 μg LysC for 12 h at room temperature (RT), followed by 1 μg of trypsin for 6 hours at 37° C.

GCK = target: T2, GCK (Homo sapiens, UniProt Q12851); test: KiNativ live cell profiling, GCK; type: cell-based, H. sapiens; settings: MOLT-4 CRBN−/− cells, 1 μM, 5 h
T2 construct: host or cells: CRBN-/- MOLT-4
T2 sequence (Q12851 1-820): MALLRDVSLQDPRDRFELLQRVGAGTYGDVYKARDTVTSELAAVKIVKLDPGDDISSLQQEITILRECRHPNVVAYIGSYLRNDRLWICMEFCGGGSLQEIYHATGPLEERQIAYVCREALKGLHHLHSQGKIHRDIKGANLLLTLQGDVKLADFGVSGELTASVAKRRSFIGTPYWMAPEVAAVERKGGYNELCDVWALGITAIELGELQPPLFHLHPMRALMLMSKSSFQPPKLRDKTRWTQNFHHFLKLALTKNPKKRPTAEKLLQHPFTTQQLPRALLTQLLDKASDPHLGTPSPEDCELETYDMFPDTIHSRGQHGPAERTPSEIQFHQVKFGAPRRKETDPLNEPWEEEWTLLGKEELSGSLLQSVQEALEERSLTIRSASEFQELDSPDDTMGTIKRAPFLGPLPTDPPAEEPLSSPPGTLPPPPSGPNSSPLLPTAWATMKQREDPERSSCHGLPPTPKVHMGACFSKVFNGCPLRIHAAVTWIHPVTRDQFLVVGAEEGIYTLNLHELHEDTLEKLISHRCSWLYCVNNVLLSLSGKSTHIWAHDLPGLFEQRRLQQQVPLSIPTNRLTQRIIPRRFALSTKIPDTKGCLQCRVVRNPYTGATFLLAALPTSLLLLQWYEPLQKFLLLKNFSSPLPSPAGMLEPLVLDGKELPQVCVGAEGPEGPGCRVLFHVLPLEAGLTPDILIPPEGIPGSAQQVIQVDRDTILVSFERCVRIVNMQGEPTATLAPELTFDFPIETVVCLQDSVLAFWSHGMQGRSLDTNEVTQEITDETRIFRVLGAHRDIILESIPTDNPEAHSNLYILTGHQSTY
Protocol: One of the key features of degraders is their potential for a sub-stoichiometric mode of action (Paiva and Crews, Curr Opin Chem Biol 50:111-119 (2019)). […] While this has been confirmed in a limited number of individual studies, the generalizability of this hypothesis was tested across the kinome. […] The focus of this test was to establish whether cellular target engagement (target occupancy) correlates with degrader efficacy. […] KiNativ™ is an activity based chemoproteomic assay, which measures the ability of a small molecule of interest to block the binding of a covalent ATP-mimetic probe. […] Furthermore, the proportion of degraded kinases with detectable binding varied dramatically from compound to compound, and was unrelated to cellular permeability (FIG. 3F).
CRBN^−/− MOLT-4 cells were plated in fresh media (RPMI-1640+10% FBS) in 15 cm plates and treated for 5 hours with candidate compounds. To harvest cells, plates were harvested using detachment using CellStripper™ detachment solution (Corning®) and washed 2× with cold phosphate-buffered saline (abbreviated PBS), followed by centrifugation and snap-freezing of cell pellets in liquid nitrogen. The remainder of the KiNativ® profiling experiment was performed by ActivX® Biosciences (La Jolla. CA).

[2] = HEK293T, 1 μM, 5 h, proteasome inhibitor

T1 sequence (Q96SW2 whole entry): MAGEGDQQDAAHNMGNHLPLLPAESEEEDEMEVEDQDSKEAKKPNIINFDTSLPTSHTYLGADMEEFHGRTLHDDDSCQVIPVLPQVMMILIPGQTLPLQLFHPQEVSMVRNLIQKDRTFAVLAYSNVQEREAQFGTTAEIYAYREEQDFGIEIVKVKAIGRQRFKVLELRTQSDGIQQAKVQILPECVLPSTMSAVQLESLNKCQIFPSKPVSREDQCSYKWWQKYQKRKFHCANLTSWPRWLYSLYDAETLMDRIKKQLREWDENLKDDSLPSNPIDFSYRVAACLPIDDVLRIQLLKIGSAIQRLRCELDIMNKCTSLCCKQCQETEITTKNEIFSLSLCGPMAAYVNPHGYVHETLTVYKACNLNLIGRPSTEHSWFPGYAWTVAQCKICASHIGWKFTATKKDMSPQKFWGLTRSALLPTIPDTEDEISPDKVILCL
T1 sequence (Q16531 whole entry partner): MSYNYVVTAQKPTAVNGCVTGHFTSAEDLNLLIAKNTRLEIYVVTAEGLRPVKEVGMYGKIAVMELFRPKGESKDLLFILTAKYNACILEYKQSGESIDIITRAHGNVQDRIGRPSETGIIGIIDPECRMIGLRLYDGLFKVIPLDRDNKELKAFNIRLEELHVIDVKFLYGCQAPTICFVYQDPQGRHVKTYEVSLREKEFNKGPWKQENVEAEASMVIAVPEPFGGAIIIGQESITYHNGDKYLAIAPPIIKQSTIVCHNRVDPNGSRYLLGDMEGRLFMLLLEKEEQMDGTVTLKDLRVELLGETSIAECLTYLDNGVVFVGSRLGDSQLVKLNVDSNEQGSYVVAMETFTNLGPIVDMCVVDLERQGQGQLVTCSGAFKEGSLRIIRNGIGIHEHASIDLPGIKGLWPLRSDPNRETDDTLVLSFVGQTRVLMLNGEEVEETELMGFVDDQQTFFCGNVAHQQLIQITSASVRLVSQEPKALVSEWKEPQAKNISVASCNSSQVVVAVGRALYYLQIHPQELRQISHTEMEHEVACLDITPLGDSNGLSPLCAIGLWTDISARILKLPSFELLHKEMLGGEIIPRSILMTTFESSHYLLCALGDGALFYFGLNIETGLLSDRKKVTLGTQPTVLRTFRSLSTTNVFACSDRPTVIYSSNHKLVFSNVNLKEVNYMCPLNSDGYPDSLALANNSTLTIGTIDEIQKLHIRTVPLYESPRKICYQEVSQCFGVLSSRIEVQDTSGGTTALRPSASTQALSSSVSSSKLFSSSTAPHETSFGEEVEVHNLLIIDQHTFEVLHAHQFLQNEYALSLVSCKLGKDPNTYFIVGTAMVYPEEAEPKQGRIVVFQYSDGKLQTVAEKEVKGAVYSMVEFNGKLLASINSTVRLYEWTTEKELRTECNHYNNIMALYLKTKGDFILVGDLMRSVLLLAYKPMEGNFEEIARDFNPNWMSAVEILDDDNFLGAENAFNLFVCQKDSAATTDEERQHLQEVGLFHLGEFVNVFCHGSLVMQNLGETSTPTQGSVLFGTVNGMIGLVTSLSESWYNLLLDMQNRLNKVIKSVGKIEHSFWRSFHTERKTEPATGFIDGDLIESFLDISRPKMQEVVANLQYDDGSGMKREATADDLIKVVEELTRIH

Row | SMILES | YES1: ternary complex formation with CRBN versus degradation [1, 2] | enriched proteins in the CRBN AP-MS [1] | GCK inhibition of probe binding (KiNativ) (GCK) | IRAK1: ternary complex formation with CRBN versus degradation [1, 2] | LYN: ternary complex formation with CRBN versus degradation [1, 2]
1 | Cc1ccc(NC(=O)c2cccc(C(F)(F)F)c2)cc1N1Cc2cnc(Nc3ccc(N4CCN(Cc5cn(CCCCCOc6cccc7c6C(=O)N(C6CCC(=O)NC6=O)C7=O)nn5)CC4)nc3)nc2N(C)C1=O (stereo not shown) [DB0646, N-(3-(7-((6-(4-((1-(5-((2-(2,6-Dioxopiperidin-3-yl)-1,3-dioxoisoindolin-4-yl)oxy)pentyl)-1H-1,2,3-triazol-4-yl)methyl)piperazin-1-v)pyridin-3-yl)amino)-1-methyl-2-oxo-1,4-dihydropyrimido[4,5-d]pyrimidin-3(2H)-yl)-4-methylphenyl)-3-(trifluoromethyl)benzamide] | complex formation and degradation are sometimes detected together | fewer enriched proteins | 58 % I |  | 
2 | Cc1ccc(C(=O)Nc2ccc(CN3CCN(CCCOCCOCCOCCNC(=O)COc4cccc5c4C(=O)N(C4CCC(=O)NC4=O)C5=O)CC3)c(C(F)(F)F)c2)cc1C#Cc1cnc2cccnn12 (stereo not shown) [SB1-G-187, N-(4-((4-(1-((2-(2,6-dioxopiperidin-3-yl)-1,3-dioxoisoindolin-4-yl)oxy)-2-oxo-6,9,12-trioxa-3-azapentadecan-15-yl)piperazin-1-yl)methyl)-3 (trifluoromethyl)phenyl)-3-(imidazo[1,2-b]pyridazin-3-ylethynyl)-4-methylbenzamide] | complex formation and degradation are sometimes detected together |  | 94 % I | complex formation and degradation are sometimes detected together | complex formation and degradation are sometimes detected together
3 | CC(C)S(=O)(=O)c1ccccc1Nc1nc(Nc2ccc(N3CCN(CCOCCNC(=O)CNc4cccc5c4C(=O)N(C4CCC(=O)NC4=O)C5=O)CC3)cc2)ncc1Cl (stereo not shown) [SK-3-91] | complex formation does not predict degradation | fewer enriched proteins | 50 % I |  | 
